What all share (assay): In-house protein microarrays (with or without 5 mM DTT), protein named per line
What all share (assay type): binding

In assay [1] the target is T1, SH2 and PTB domains (Homo sapiens, UniProt P19174).
T1 construct: thioredoxin; made in house; host or cells: BL21(DE3)pLysS E. coli
T1 sequence (P19174 1-1290): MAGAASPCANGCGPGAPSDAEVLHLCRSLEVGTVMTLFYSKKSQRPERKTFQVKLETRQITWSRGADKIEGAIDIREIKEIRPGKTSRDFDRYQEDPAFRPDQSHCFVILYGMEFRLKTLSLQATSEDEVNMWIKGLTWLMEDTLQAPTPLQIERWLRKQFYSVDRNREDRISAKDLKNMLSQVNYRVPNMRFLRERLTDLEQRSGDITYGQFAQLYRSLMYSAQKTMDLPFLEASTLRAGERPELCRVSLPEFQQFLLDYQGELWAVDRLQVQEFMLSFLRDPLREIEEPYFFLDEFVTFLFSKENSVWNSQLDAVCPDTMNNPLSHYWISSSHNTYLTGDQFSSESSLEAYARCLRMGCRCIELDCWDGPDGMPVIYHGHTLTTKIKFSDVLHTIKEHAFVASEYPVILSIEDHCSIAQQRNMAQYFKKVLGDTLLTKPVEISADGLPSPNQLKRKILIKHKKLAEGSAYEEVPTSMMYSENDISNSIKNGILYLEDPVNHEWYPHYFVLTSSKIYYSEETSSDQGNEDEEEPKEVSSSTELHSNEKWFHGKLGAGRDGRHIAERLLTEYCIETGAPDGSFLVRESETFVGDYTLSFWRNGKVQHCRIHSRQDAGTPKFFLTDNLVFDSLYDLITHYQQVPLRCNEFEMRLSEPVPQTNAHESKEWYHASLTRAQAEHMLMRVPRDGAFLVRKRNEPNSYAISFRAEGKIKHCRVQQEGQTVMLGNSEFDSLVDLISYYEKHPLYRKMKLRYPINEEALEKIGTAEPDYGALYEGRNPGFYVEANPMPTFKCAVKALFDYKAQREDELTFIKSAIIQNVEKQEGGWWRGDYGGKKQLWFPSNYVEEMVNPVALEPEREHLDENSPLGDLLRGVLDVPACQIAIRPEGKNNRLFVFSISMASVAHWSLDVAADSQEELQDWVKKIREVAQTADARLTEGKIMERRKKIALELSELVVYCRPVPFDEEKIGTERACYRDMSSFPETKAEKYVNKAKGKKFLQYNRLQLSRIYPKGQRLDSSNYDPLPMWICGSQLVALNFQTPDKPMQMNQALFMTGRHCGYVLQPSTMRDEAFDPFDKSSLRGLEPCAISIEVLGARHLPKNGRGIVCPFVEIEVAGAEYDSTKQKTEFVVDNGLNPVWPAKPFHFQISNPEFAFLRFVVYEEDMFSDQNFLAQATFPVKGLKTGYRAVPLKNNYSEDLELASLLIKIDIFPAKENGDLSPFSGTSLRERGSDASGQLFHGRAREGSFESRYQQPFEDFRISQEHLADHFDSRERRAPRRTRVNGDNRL
Summed up: (§1)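 Recombinant domains (~40 µM) spotted in duplicate on aldehyde slides, quenched 1 h at room temperature in HEPES/KCl/Tween-20 buffer pH 7.8 with 5 mM DTT and 1% BSA, then probed with rhodamine-labeled peptide. Thioredoxin-subtracted mean fluorescence fitted for KD.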

In assay [2] the target is T2, SH2 and PTB domains (Homo sapiens, UniProt Q96JZ2).
T2 construct: thioredoxin; made in house; host or cells: BL21(DE3)pLysS E. coli
T2 sequence (Q96JZ2 whole entry, the tested form may be a part): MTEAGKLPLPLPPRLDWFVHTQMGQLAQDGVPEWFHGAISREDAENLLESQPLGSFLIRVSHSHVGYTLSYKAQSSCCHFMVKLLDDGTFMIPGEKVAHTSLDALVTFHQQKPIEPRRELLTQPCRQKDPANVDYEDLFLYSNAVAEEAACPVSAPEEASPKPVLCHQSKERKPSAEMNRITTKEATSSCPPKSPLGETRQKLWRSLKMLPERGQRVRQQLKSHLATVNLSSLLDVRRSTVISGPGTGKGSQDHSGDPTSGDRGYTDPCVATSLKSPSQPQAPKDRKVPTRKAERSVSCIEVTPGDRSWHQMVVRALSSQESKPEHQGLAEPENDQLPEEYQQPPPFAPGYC
The settings on record: protein HSH2D; PM assay replicate # 39307; array fabrication # 39286. Summed up:
as §1

For assay [3], the target named is T3, SH2 and PTB domains (Homo sapiens, UniProt P51813).
T3 construct: thioredoxin; made in house; host or cells: BL21(DE3)pLysS E. coli
T3 sequence (P51813 1-675): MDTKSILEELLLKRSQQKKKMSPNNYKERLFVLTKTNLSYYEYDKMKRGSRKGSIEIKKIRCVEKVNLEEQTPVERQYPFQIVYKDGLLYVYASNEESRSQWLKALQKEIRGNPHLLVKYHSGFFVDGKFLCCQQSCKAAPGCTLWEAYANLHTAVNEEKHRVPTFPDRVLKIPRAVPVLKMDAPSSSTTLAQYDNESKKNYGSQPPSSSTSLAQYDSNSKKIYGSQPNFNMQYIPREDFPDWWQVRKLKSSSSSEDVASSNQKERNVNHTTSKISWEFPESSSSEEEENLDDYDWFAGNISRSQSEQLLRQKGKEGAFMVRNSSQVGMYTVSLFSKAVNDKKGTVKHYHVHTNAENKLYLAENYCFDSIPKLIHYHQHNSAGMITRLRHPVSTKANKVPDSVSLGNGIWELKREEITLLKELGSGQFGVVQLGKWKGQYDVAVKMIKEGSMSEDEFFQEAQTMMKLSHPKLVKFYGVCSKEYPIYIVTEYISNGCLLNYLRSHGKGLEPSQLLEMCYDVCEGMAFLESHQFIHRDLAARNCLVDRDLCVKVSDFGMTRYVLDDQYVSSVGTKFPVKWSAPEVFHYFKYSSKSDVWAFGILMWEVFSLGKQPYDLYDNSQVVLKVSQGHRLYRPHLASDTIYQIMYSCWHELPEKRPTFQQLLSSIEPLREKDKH
Conditions: protein BMX. A digest of the protocol:
as §1

Residues, ends and D or L forms follow the SMILES beside them.

In the case of `CCN(CC)c1ccc2c(-c3ccc(C(=O)N[C@@H](CC(N)=O)C(=O)NCC(=O)N4CCC[C@H]4C(=O)N4CCC[C@H]4C(=O)N[C@@H](CCCCN)C(=O)N[C@@H](C)C(=O)N[C@@H](CCC(=O)O)C(=O)N[C@@H](CC(=O)O)C(=O)N[C@@H](CCC(=O)O)C(=O)N[C@@H](Cc4ccc(OP(=O)(O)O)cc4)C(=O)N[C@H](C(=O)N[C@@H](CC(N)=O)C(=O)N[C@@H](CCC(=O)O)C(=O)N4CCC[C@H]4C(=O)N[C@@H](CC(C)C)C(=O)N[C@@H](Cc4ccc(O)cc4)C(=O)N[C@@H](CC(C)C)C(=O)N[C@@H](CC(=O)O)C(=O)O)C(C)C)cc3C(=O)[O-])c3ccc(=[N+](CC)CC)cc-3oc2c1` [ErbB4 1202 (18-mer)] (HELM PEPTIDE1{[CCN(CC)c1ccc2c(-c3ccc(C(=O)[*:2])cc3C(=O)[O-])c3ccc(=[N+](CC)CC)cc-3oc2c1].N.G.P.P.K.A.E.D.E.[O=C([C@H](Cc1ccc(OP(=O)(O)O)cc1)N[*:1])[*:2]].V.N.E.P.L.Y.L.D}$$$$V2.0), the “Kd” value on SH2 and PTB domains [1] (protein PLCG1-C, PM assay replicate # 39307, array fabrication # 39286) came to 1260 nM; at SH2 and PTB domains [2], 970 nM.
`CC[C@H](C)[C@H](NC(=O)[C@H](CC(N)=O)NC(=O)[C@H](CC(N)=O)NC(=O)[C@H](CCCCN)NC(=O)[C@H](CC(C)C)NC(=O)[C@H](Cc1ccc(OP(=O)(O)O)cc1)NC(=O)[C@H](CCC(=O)O)NC(=O)[C@H](C)NC(=O)[C@H](CCCCN)NC(=O)CNC(=O)[C@H](CC(C)C)NC(=O)[C@@H](NC(=O)[C@H](CC(N)=O)NC(=O)[C@H](C)NC(=O)[C@@H](N)Cc1ccccc1)[C@@H](C)O)C(=O)N[C@@H](CC(C)C)C(=O)N[C@@H](CO)C(=O)N[C@@H](CC(=O)O)C(=O)O` [ErbB4 pY1221 (18-mer)] (HELM PEPTIDE1{F.A.N.T.L.G.K.A.E.[O=C([C@H](Cc1ccc(OP(=O)(O)O)cc1)N[*:1])[*:2]].L.K.N.N.I.L.S.D}$$$$V2.0): the “Kd” value turned out to be 420 nM on SH2 and PTB domains [3] (PM assay replicate # 39307, array fabrication # 39286); 990 nM at SH2 and PTB domains [2].
In the case of `CC(C)C[C@H](NC(=O)[C@@H]1CCCN1C(=O)[C@H](C)NC(=O)[C@@H](NC(=O)[C@H](Cc1ccc(OP(=O)(O)O)cc1)NC(=O)CNC(=O)[C@H](CC(=O)O)NC(=O)[C@@H](NC(=O)[C@@H](N)CCC(=O)O)[C@@H](C)O)C(C)C)C(=O)N[C@H](C(=O)N[C@@H](CS)C(=O)N[C@@H](CO)C(=O)N[C@@H](CC(=O)O)C(=O)O)[C@@H](C)O` [ErbB2 pY1127], the “Kd” value was found to be 1600 nM on SH2 and PTB domains [3] (PM assay replicate # 39336, array fabrication # 39329); 5390 nM at SH2 and PTB domains [3] (PM assay replicate # 39337, array fabrication # 39329); 4090 nM on SH2 and PTB domains [1] (protein PLCG1-C, PM assay replicate # 39336, array fabrication # 39329); 110 nM on SH2 and PTB domains [1] (protein PLCG1-C, PM assay replicate # 39337, array fabrication # 39329); 8820 nM on SH2 and PTB domains [1] (protein PLCG1-NC, PM assay replicate # 39336, array fabrication # 39329); 1920 nM at SH2 and PTB domains [1] (protein PLCG1-NC, PM assay replicate # 39337, array fabrication # 39329).

Values taken from PMC3433420 (PLoS ONE, 2012).
